The source of these data is paper PMC4038554, “Human CD4^+ T Cell Responses to the Dog Major Allergen Can f 1 and Its Human Homologue Tear Lipocalin Resemble Each Other” (PLoS ONE, 2014).

The target of experiment [1] is DRB1*0401 (Homo sapiens, UniProt P01903+P01911, A100K/A169T/F76Y/I96L/K127E/L162R/M171V/N62H/P40V/Q125Y/R42H/S133A/S149N/S66Y/V115G/V209L/W38E). The experiment can be described thus: HLA class II peptide-binding assay (competitive ELISA). The following applies: immunopurified HLA, reference peptide IC50 8 nM, ratio ≤20 high affinity, 20–200 moderate affinity. On the technique in general: In an ELISA, binding on a coated surface is turned into a signal by an enzyme label.

For experiment [2], the target named is DRB1*1101 (Homo sapiens, UniProt P01903+P01911, A100R/A169T/A87E/I96F/K41T/L162R/M171V/P40S/Q125H/Q178H/Q39Y/Q99D/R42S/S66Y/T262R/V115G/W38E). Described as above. As to conditions: immunopurified HLA, reference peptide IC50 50 nM, ratio ≤20 high affinity, 20–200 moderate affinity.
Experiment [3] has as its target DRB1*0301 (Homo sapiens, UniProt P01903+P01911, A100K/A102G/A103R/A169T/F55Y/I96L/K41T/L162R/M171V/P40S/Q125H/Q178H/Q39Y/R42S/S66N/T106N/T262R/W38E/Y61H). The description is as above. The following applies: immunopurified HLA, reference peptide IC50 423 nM, ratio ≤20 high affinity, 20–200 moderate affinity.
In experiment [4] the test system is CD25-depleted PBMCs (CD4+ T cells). The experiment can be described thus: Generation of peptide-specific CD4+ T cell lines with the split-well method (frequency of specific TCLs). The following applies: for positive specific TCLs out of 30 replicate wells per subject: peptides at 2 µM, 10^5 PBMCs per well, mean±SEM, SEM; for estimated average precursor frequency of peptide-specific T cells: estimated from TCL frequencies, assuming 30% CD4+ T cells in PBMCs. It is filed as cell-based, human. On the procedure: After isolating peripheral-blood mononuclear cells (PBMCs) by Ficoll-Paque Plus density gradient centrifugation (GE Healthcare Biosciences, Uppsala, Sweden), CD4^+CD25high regulatory T cells were depleted with anti-CD25-magnetic beads (Miltenyi Biotec, Bergisch Gladbach, Germany), to enhance the induction of both autoreactive and allergen-reactive CD4^+ T cell responses, as previously described, [34].The CD25-depleted PBMCs were seeded in 96-well U-bottomed plates (Corning Incorporated, Corning, USA; 10^5 PBMCs per well) in the presence of pooled Can f 1 or TL peptides (each peptide at 2 µM, 30 wells per a peptide pool), or the HA peptide (30 wells) in a 150 µl volume of RPMI 1640 culture medium supplemented with 2 mM L-glutamine, 20 µM 2-mercaptoethanol, 1 mM sodium pyruvate, nonessential amino acids, 100 IU/ml penicillin, 100 µg/ml streptomycin, 10 mM HEPES (all from Lonza, Verviers, Belgium) and 5% inactivated human AB serum (Sigma-Aldrich, St. Louis, MO). On day 5, 50 µl of fresh medium supplemented with 10 IU/ml of IL-2 (Strathmann Biotech, Hannover, Germany) was added to the cultures. On day 7, half of the culture medium was replaced without IL-2. On day 10, half of the cells in the cultures were split into daughter plates for testing specificity by stimulating the cells with or without the pooled peptides (each peptide at 2 µM) together with autologous γ-irradiated (3000 rad) PBMCs (5×10^5) as antigen-presenting cells. After an incubation of 72 h, [3H]thymidine was added (1 µCi per well; GE Healthcare, Little Chalfont, UK), and after an additional 16 h, the cells were harvested onto glass fiber filters on day 14 (Wallac, Turku, Finland). Radioactivity was measured by scintillation counting (Wallac Micro Beta 1540) and the results were expressed as counts per minute (CPM). The stimulation indices (SI; CPM in the presence of antigen divided by CPM in the absence of antigen) and CPM differences between stimulated and unstimulated wells (ΔCPM) were determined. On the same day, positive cultures (ΔCPM>2000 and SI>2) were restimulated in 48-well plates with autologous γ-irradiated PBMCs (10^6/well), 2 µM of the peptides and 25 IU/ml of IL-2. On day 28, the established TCLs were propagated once more with peptides, IL-2 and PBMCs. After stimulations, half of the culture medium was replaced with fresh medium supplemented with IL-2 every 2–3 days. The peptide specificity of TCLs was defined as described below.
T cell proliferation assays were set in duplicates in 96-well U-bottomed plates with 2.5×10^4 cultured T cells, 5×10^4 autologous γ-irradiated (3000 rad) PBMCs as APCs, and antigens as indicated. In order to determine the epitope specificity of the established TCLs induced with peptide pools, the T cell lines were tested with each of the three individual peptides in the pool at 10 µM on day 28. Proliferation was measured by radionuclide uptake (see above). […] On day 42, peptide-specific TCLs were tested with individual Can f 1 peptides, as well as their TL homologues, at several concentrations up to 10 µM. The functional T cell receptor (TCR) avidities of the TCLs for a peptide were assessed by determining effective concentration 50 (EC50) values (i.e., the concentration of a peptide needed to induce a half-maximal proliferative response) from the dose-response curves of individual TCLs.

The target of experiment [5] is DRB1*1501 (Homo sapiens, UniProt P01903+P01911). In words: HLA class II peptide-binding assay (competitive ELISA). The following applies: immunopurified HLA, reference peptide IC50 775 nM, ratio ≤20 high affinity, 20–200 moderate affinity.
In experiment [6] the test system is DRB4. The description is as above. More on the design: species or system human.
The target of experiment [7] is DRB1*1301 (Homo sapiens, UniProt P01903+P01911, A100E/A169T/K41T/L162R/M171V/P40S/Q125H/Q178H/Q39Y/Q99D/R42S/S66N/T262R/W38E/Y61H). The experiment is described as above. The following applies: immunopurified HLA, reference peptide IC50 208 nM, ratio ≤20 high affinity, 20–200 moderate affinity.
Experiment [8] deals with DRB5. Described as above. More on the design: species or system human.
Experiment [9] deals with DRB3. Described as above. More on the design: species or system human.
Experiment [10] addresses DRB1*0701 (Homo sapiens, UniProt P01903+P01911, A100R/A102G/A103Q/D57E/D86V/E43K/F76Y/K127E/L162R/M171V/P40G/Q125H/Q99D/R33Q/R42Y/R54Q/S133A/S66F/T210M/V115G/Y107V/Y59L/Y89S). The description is as above. The following applies: immunopurified HLA, reference peptide IC50 5 nM, ratio ≤20 high affinity, 20–200 moderate affinity.
The target of experiment [11] is DRB1*0101 (Homo sapiens, UniProt P01903+P01911, A100R/D57E/F55L/F60I/F76Y/I96L/L162R/M171V/P40L/Q125E/R42F/V115G/Y59C). The experiment is described as above. As to conditions: immunopurified HLA, reference peptide IC50 3 nM, ratio ≤20 high affinity, 20–200 moderate affinity.
The test system of experiment [12] is peptide-specific CD4+ T cell lines. The experiment can be described thus: Proliferation assay, functional TCR avidity (EC50) of peptide-specific TCLs. The format is cell-based, human.
[13] abbreviates: DRB4, competitive ELISA, immunopurified HLA, reference peptide IC50 8 nM, ratio ≤20 high affinity, 20–200 moderate affinity.
Where [14] appears, read: DRB5, competitive ELISA, immunopurified HLA, reference peptide IC50 7 nM, ratio ≤20 high affinity, 20–200 moderate affinity.
[15] abbreviates: DRB3, competitive ELISA, immunopurified HLA, reference peptide IC50 60 nM, ratio ≤20 high affinity, 20–200 moderate affinity.

Several values for one entry are separate records, joined by “and”; a condition that tells them apart may be missing. Identical values can stand only once. Like-named read-outs stand apart in the source and are kept apart here.

Consider “LEAKVTMLISGRCQEVK [pTL3, Tear lipocalin peptide p49–65]”, for which the “relative binding ratio (IC50 of the test peptide divided by IC50 of the reference peptide)” value in [1] was found to be 82; in [2], 5; in experiment [3], 0.4; in experiment [5], 1; in [6] (setting [13]), 312; in experiment [7], 3. In addition, the “relative binding ratio (IC50 of the test peptide divided by IC50 of the reference peptide)” value in experiment [8] (setting [14]) was determined as 4; in experiment [9] (setting [15]), 8; in [10] it was 0.2; in experiment [11], 2. In addition, the figures for the “positive specific TCLs out of 30 replicate wells per subject” value (shortened to “positive specific TCLs out … per subject”) in experiment [4] (allergic subjects) and in [4] (nonallergic subjects) were 1.89±0.57% and 4.2±0.68%, respectively.

Take “PGKYTAYEGQRVVFIQ [pC4, Can f 1 peptide p73–88]”: the “relative binding ratio (IC50 of the test peptide divided by IC50 of the reference peptide)” value in experiment [1] is 82; in experiment [2], 133; in experiment [3] it was 13; in experiment [5], 0.4; in experiment [6] (setting [13]), 722; in [7], 56. Moreover, the “relative binding ratio (IC50 of the test peptide divided by IC50 of the reference peptide)” value is on record as 14 in experiment [8] (setting [14]), 61 in experiment [9] (setting [15]), 1 in [10] and 1 in experiment [11]. Besides, the “positive specific TCLs out … per subject” value in [4] (allergic subjects) amounted to 5.0±1.15%; in experiment [4] (nonallergic subjects), 4.2±1.61%.

As for “PKYVKQNTLKLAT [HA, influenza hemagglutinin (HA) peptide (amino acids 306–318), viral control peptide, reference compound]”, the “estimated average precursor frequency of peptide-specific T cells” value is 4.2 per 10^6 CD4^+ T cells in [4] (allergic subjects) and 2.9 per 10^6 CD4^+ T cells in experiment [4] (nonallergic subjects). For the same sequence, the “positive specific TCLs out … per subject” value worked out at 12.68±10.98% in experiment [4] (allergic subjects) and 8.60±13.37% in experiment [4] (nonallergic subjects). Also, the “relative binding ratio (IC50 of the test peptide divided by IC50 of the reference peptide)” value in experiment [6] is given as > 1 179; in experiment [8] it was 1; in experiment [9], over 167. In [12], the “percentage of high-avidity (EC50<0.1 µM) TCLs” value was 25.0% and 22.6%.
